# Article PMC7369637, “Inhibition of Resistance-Refractory P. falciparum Kinase PKG Delivers Prophylactic, Blood Stage, and Transmission-Blocking Antiplasmodial Activity” (Cell Chemical Biology, 2020)
# Where two headings read alike, the source gives them in different places.
# Columns and labels:
# ed. Dd2-B2 TKL3KO = assay: 72-h ABS assay, TKL3 knockout line; format: cell-based; details: Plasmodium falciparum, parent Dd2-B2 wild-type
# Protocol: Synchronicity was achieved using three rounds of sorbitol treatment on early rings, spaced 48 h apart, followed by magnetic purification of segmented schizonts following the final sorbitol treatment. Parasites were highly synchronous to within a 3 h window of development. Assays were repeated on at least three independent occasions (each with technical duplicates) and statistical significance was assessed using Mann Whitney U tests.
# The resulting MMV030084-resistant parasites were cloned by limiting dilution ([Baker et al., 2017]) to obtain genetically homogenous cultures for further phenotyping and whole-genome sequencing. A second round of […]. […] Drug susceptibility of resistant lines was assessed using a 72 h ABS assay as described above, and a Mann Whitney U test was applied to assess statistically significant differences.
# A CRISPR/Cas9 targeted gene editing strategy using an all-in-one plasmid approach was applied to introduce T1268R, I1250M and T1268R+I1250M in wild-type Dd2-B2 parasites or to produce a TKL3 KO line by inserting a stop codon and frameshift at amino acid position 1268. […] WR99210 (2.5 nM) was added to the culture medium 24 h after electroporation to select for successfully transfected parasites and was maintained in the medium until edited parasites were detected. […]
# [1] = molecular target: T1, calcium-dependent protein kinase 1 (CDPK1) (PF3D7_0217500) (Plasmodium falciparum, UniProt P62344); assay: Competitive chemoproteomics in Pf lysates (Kinobeads / bead-immobilized compound); format: binding; details: for Kd: read-out: Kdapp, CDPK1
# T1 construct: endogenous in cells; host or cells: P. falciparum asexual blood-stage parasites (trophozoite stage)
# T1 sequence (P62344 whole entry): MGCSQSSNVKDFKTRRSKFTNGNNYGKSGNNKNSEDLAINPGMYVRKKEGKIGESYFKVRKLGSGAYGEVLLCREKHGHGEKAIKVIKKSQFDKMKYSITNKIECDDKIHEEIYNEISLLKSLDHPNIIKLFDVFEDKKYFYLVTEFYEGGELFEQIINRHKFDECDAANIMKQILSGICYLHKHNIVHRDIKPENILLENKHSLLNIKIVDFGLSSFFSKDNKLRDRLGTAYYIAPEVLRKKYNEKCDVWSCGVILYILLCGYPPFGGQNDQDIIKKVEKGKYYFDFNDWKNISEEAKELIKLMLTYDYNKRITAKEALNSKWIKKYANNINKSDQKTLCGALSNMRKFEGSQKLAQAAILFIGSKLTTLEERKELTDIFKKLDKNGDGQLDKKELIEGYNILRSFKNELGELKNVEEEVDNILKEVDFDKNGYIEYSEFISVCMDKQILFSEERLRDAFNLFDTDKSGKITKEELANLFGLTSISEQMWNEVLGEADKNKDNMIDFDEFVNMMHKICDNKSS
# Protocol: (§1) Pf protein extracts were prepared as described elsewhere ([Paquet et al., 2017]). Parasite cultures at the trophozoite stage were harvested, washed twice in RPMI 1640 medium (Gibco), and lysed by the addition of saponin to a final concentration of 0.1% for 5 min at room temperature. Free parasites were sedimented by centrifugation (3500 rpm for 10 min), washed three times with phosphate-buffered saline, and stored at −80°C. Parasites were resuspended in cell lysis buffer (50 mM tris-HCl (pH 7.5), 5% glycerol, 1.5 mM MgCl2, […], 1 mM […], 25 mM sodium fluoride, 0.8% NP-40, EDTA-free protease inhibitor cocktail tablets (Roche Diagnostics), and 1 mM DTT) and disrupted by sonication (Sonics Vibra-Cell) using two 30-s cycles on ice at half-amplitude. After centrifugation (140,000g for 1 h at 4°C), soluble proteins were recovered from the supernatants, and protein concentrations of each sample were estimated using the Lowry-based DC assay (Bio-Rad). Samples were stored at −80°C until use.
# (§2) Kinobeads were prepared by immobilizing Bis-(III) indolyl-maleimide, purvalanol B, staurosporine and CZC8004, and the analogs of PD173955, sunitinib and vandetanib on NHS-activated Sepharose 4 beads (Amersham) ([Bantscheff et al., 2007]). […] The chemoproteomic affinity-capturing experiments were performed as previously described ([Bantscheff et al., 2011]). Briefly, beads were washed and equilibrated in lysis buffer (50 mM Tris-HCl, pH 7.4, 0.4 % Igepal-CA630, 1.5 mM MgCl2, 5 % Glycerol, 150 mM NaCl, 25 mM NaF, 1 mM Na3VO4, 1 mM DTT, and one cOmplete EDTA-free protease inhibitor tablet (Roche) per 25 mL). The beads were incubated at 4°C for 1 h with either 0.1 ml (0.3 mg) Pf blood stage extract or 0.5 mL (2.5 mg) human cell/tissue protein extract (a mixture of HEK-293, K-562, Hep G2 , and placental cells), which was pre-incubated with compound or DMSO (vehicle control). 10 samples were measured in parallel (TMT 10-plex ([Werner et al., 2014])) to generate values for the affinity of the beads to the bound proteins (“depletion” values, 4 samples) and to generate IC50 values (6 samples) in a single experiment. Apparent dissociation constants were determined after accounting for protein depletion by the beads ([Bantscheff et al., 2011]). Beads were transferred to Filter plates (Durapore PVDF membrane, Merck Millipore), washed with lysis buffer, and eluted with SDS sample buffer.
# (§3) Proteins were digested according to a modified single pot solid-phase sample preparation (SP3) protocol ([Hughes et al., 2014]). Peptides were labeled with isobaric mass tags (Thermo Fisher Scientific, Waltham, MA) using 10-plex TMT reagents, enabling relative quantification of 10 conditions in a single experiment ([Werner et al., 2014]). The labeling reactions and LC-MS/MS measurements using Q Exactive Orbitrap or Orbitrap Fusion Lumos mass spectrometers (Thermo Fisher Scientific) were performed as described elsewhere ([Sridharan et al., 2019]). Mascot 2.4 (Matrix Science, Boston, MA) was used for protein identification by using a 10 parts per million mass tolerance for peptide precursors and 20 mD (HCD) mass tolerance for fragment ions. To create the fasta file for mascot searching, all proteins corresponding to the taxonomy ‘Plasmodium falciparum (isolate 3D7)’ were downloaded from Uniprot (release 20170621) and supplemented with common contaminant protein sequences of bovine serum albumin, porcine trypsin and mouse, rat, sheep and dog keratins. To assess the false discovery rate (FDR), “decoy” proteins (reverse of all protein sequences) were created and added to the database, resulting in a database containing a total of 14266 protein sequences, with 50% forward and 50% reverse. For peptide and protein identification of human proteins see ([Sridharan et al., 2019]). […]
# [2] = molecular target: putative amino acid transporter (AAT) (PF3D7_1231400) (Plasmodium falciparum, UniProt Q8I5A6); assay: as above; format: binding; details: lysates exposed to 40 μM of the same compound vs vehicle
# putative amino acid transporter (AAT) (PF3D7_1231400), sequence (Q8I5A6 entry or part of it): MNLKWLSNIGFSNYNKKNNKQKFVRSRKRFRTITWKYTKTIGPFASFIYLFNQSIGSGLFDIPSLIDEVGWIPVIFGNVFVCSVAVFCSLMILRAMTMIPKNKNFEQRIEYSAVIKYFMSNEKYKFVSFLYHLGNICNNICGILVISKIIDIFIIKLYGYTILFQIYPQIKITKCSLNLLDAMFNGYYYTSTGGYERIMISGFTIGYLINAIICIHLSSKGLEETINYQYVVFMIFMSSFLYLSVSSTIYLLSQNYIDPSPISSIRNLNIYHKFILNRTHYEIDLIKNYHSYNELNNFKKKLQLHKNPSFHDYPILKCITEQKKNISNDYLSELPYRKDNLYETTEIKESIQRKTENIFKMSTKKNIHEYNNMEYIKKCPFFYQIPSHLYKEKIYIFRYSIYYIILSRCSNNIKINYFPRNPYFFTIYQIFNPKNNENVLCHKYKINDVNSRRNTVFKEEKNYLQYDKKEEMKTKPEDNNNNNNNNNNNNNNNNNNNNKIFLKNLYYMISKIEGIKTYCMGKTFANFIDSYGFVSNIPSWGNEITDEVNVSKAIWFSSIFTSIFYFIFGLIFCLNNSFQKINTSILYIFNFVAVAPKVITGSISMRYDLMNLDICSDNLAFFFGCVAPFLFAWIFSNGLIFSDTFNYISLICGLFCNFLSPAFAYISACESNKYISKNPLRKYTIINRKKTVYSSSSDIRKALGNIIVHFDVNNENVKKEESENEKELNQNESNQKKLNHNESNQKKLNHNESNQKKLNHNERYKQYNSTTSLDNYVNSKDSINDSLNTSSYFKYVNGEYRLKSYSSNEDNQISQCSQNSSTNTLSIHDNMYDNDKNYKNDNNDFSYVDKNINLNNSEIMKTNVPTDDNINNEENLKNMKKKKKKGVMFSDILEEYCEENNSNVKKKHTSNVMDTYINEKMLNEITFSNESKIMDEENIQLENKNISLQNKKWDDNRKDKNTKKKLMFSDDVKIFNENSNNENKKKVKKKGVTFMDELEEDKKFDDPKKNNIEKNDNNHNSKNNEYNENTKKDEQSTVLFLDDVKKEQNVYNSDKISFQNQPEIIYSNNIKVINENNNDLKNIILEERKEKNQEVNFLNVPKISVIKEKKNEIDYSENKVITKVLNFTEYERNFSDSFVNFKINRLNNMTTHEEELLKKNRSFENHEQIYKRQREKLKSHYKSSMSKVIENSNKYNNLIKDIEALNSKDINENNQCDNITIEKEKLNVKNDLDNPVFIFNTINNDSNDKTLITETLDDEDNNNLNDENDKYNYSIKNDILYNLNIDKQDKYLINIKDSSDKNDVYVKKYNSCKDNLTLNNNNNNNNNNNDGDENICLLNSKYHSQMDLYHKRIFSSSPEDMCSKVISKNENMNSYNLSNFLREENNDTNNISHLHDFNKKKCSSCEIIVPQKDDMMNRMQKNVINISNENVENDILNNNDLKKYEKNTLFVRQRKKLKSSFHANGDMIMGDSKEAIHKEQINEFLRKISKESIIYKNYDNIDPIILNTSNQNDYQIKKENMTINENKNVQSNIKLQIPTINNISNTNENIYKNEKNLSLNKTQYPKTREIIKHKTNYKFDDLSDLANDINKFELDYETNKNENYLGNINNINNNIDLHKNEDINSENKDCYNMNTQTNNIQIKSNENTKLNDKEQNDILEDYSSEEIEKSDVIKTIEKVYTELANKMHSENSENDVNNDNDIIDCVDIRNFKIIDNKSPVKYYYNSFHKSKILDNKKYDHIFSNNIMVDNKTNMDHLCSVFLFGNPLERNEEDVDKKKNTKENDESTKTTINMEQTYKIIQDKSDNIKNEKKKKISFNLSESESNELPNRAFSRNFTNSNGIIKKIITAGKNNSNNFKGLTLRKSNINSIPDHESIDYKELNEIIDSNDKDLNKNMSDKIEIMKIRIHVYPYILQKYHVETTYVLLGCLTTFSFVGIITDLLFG
# Protocol: as §1, §2, §3
structure (smiles),measurement,setting,value
CC(C)(CN)c1nc(-c2ccc(Cl)c(O)c2)c(-c2ccncc2)[nH]1 [MMV030084],IC50,ed. Dd2-B2 TKL3KO,376 nM
same,Kd,[1]; '084-beads (bead-immobilized MMV030084),220 nM
same,Kd,[1]; Kinobeads,215 nM
same,Kd,"[1]; five independent experiments, lowest tested concentration 0.1 μM",< 100 nM
same,CDPK1 pull-down by bead-bound compound,[1]; lysates exposed to 40 μM of the same compound vs vehicle,pulled down
same,Kd,[1]; two follow-up experiments with lower concentrations,215 to 220 nM
same,AAT pull-down by bead-bound compound,[2],pulled down
